Values belong to the compound of their own block, whether it stands above or below them.
How the values were obtained:
[1] = target: T1, Tyrosine-protein kinase JAK3 (Homo sapiens, UniProt P52333)
T1 sequence (P52333 whole entry): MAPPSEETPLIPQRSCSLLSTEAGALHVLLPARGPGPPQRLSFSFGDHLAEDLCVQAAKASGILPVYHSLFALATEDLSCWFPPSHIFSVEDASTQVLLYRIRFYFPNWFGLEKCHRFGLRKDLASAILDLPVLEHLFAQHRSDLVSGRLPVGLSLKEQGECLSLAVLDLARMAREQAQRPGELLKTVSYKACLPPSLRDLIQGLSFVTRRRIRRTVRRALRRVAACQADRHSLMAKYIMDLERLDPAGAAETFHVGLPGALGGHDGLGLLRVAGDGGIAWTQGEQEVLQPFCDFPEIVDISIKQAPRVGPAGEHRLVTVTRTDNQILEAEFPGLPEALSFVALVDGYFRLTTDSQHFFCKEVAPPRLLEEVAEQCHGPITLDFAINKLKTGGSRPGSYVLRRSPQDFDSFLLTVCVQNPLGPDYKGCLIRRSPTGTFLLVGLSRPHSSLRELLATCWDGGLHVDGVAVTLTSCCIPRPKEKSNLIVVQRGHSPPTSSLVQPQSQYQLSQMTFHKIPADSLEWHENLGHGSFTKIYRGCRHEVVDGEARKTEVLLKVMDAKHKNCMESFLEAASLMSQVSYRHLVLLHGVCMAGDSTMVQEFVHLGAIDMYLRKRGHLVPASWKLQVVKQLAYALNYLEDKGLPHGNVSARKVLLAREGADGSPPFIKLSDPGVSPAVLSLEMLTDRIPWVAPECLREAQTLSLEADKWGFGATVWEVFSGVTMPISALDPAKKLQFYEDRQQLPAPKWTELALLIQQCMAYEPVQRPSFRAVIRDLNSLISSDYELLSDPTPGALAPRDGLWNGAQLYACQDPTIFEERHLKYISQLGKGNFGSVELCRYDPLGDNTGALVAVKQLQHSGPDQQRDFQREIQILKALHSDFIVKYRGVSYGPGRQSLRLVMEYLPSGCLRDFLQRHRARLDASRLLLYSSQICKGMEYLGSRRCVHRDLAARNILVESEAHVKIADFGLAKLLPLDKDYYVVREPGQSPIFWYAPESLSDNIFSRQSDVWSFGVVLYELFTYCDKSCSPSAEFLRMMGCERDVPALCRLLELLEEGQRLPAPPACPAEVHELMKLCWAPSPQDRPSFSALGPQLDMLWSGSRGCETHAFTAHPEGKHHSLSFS
Description: Inhibition of recombinant human GST-tagged JAK3 expressed in baculovirus expression system using Z'-LYTE Try6 peptide as substrate incubated for 1 hr by Z'-LYTE assay

in vivo [2] = conditions: Sprague-Dawley, rat, po, 10 mg/kg
in vivo [3] = conditions: Sprague-Dawley, rat, iv, 4 mg/kg
in vivo [4] = conditions: Sprague-Dawley, rat, po, 10 mg/kg; remark: listed apart in the source
in vivo [5] = conditions: Sprague-Dawley, rat, iv, 4 mg/kg; remark: listed apart in the source
in vivo [6] = conditions: Sprague-Dawley, rat, iv, 4 mg/kg; remark: listed apart in the source
in vivo [7] = conditions: Sprague-Dawley, rat, po, 10 mg/kg; remark: listed apart in the source
in vivo [8] = conditions: Sprague-Dawley, rat, po, 10 mg/kg; remark: listed apart in the source
in vivo [9] = conditions: Sprague-Dawley, rat, iv, 4 mg/kg; remark: listed apart in the source
in vivo [10] = conditions: Sprague-Dawley, rat, iv, 4 mg/kg; remark: listed apart in the source
Description: Half life in Sprague-Dawley rat at 4 mg/kg, iv administered as bolus dose

in vivo [11] = conditions: Sprague-Dawley, rat, po, 10 mg/kg; remark: listed apart in the source
Description: Half life in Sprague-Dawley rat at 10 mg/kg, po administered through gavage

IC50 [1]: 507 nM
SMILES: Cn1c(C(=O)NCCCN2CCOCC2)cc2c(-c3ccc(NC(=O)[C@@H]4CCCN4C(=O)OC(C)(C)C)cc3)ncnc21

Tmax (in vivo [2]): 4 h | Vd (in vivo [3]): 0.612 L/kg | bioavailability (in vivo [4]): 73.6% | Cmax (in vivo [5]): 9730 ng/mL | AUC(0-t) at 24 h (in vivo [6]): 19700 ng·h/mL | AUC(0-t) at 24 h (in vivo [7]): 36300 ng·h/mL | Cmax (in vivo [8]): 6140 ng/mL | clearance (in vivo [9]): 3.3 mL/min/kg | half-life (in vivo [10]): 2.09 h | IC50 [1]: 584 nM | half-life (in vivo [11]): 2.32 h
SMILES: Cn1c(C(=O)NCCCN2CCOCC2)cc2c(-c3ccc(NC(=O)C(C)(C)C)cc3)ncnc21

IC50 [1]: 953 nM
SMILES: Cn1c(C(=O)NCCN2CCCC2)cc2c(-c3ccc(NC(=O)C(C)(C)C)cc3)ncnc21

IC50 [1]: 716 nM
SMILES: Cn1c(C(=O)NCCN2CCCC2)cc2c(-c3ccc(NC(=O)[C@@H]4CCCN4C(=O)OC(C)(C)C)cc3)ncnc21

From ChEMBL document CHEMBL3797127, “Design, synthesis and evaluation of pyrrolo[2,3-d]pyrimidine-phenylamide hybrids as potent Janus kinase 2 inhibitors” (Bioorg Med Chem Lett, 2016)
